Structures are written as SMILES. Values joined by “and” are separate entries in the source; they are usually repeats but may differ in a detail not shown here. Equal entries are not always repeated. Inconclusive results and toxic doses are left out.

The assay relates to P388 leukemia ip, CD2F1 mice, survival T/C. Put plainly: NCI In Vivo Anticancer Drug Screen. Data for tumor model P388 Leukemia (intraperitoneal) in CD2F1 (CDF1) mice. The settings on record: endpoint: median survival time, higher = longer survival. In short, it runs like this:
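Mice carrying the transplanted tumor received test compound or vehicle. Survival was recorded in each group, and the value is the treated-group measurement divided by that of the vehicle-treated control group.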

[1] abbreviates: dose: 50.0 mg/kg/injection, schedule: Q01DX005 (ip), vehicle: saline with Tween-80.
The mark [2] stands for this setting: dose: 100.0 mg/kg/injection, schedule: Q01DX005 (ip), vehicle: saline with Tween-80.
Setting [3] is: dose: 200.0 mg/kg/injection, schedule: Q01DX005 (ip), vehicle: saline with Tween-80.
[4] abbreviates: dose: 50.0 mg/kg/injection, schedule: Q01DX009 (ip), vehicle: saline.
Where [5] appears, read: dose: 100.0 mg/kg/injection, schedule: Q01DX009 (ip), vehicle: saline.
Setting [6] is: dose: 100.0 mg/kg/injection, schedule: Q01DX009 (ip), vehicle: saline with Tween-80.
Setting [7] is: dose: 6.25 mg/kg/injection, schedule: Q01DX009 (ip), vehicle: saline.
[8] abbreviates: dose: 12.5 mg/kg/injection, schedule: Q01DX009 (ip), vehicle: saline.
Where [9] appears, read: dose: 25.0 mg/kg/injection, schedule: Q01DX009 (ip), vehicle: saline.

For the compound `COc1ccc(C(C)(O)C2CC2)cc1` (stereo not given), the T/C reads like this: (dose: 100.0 mg/kg/injection, schedule: Q01DX001 (ip), vehicle: Klucel (hydroxypropylcellulose) (HPC)) 107 % of control; (dose: 200.0 mg/kg/injection, schedule: Q01DX001 (ip), vehicle: Klucel (hydroxypropylcellulose) (HPC)) 103 % of control; (dose: 400.0 mg/kg/injection, schedule: Q01DX001 (ip), vehicle: Klucel (hydroxypropylcellulose) (HPC)) 103 % of control.
For the compound `Cc1ccc(SCC(=O)NCc2cccs2)cc1`, the T/C under setting [1] is 103 % of control, the T/C under setting [2] was 97 % of control and the T/C under setting [3] was 93 % of control.
With `CCOC(=O)C(Cc1ccc(N(CCCl)CCCl)cc1)NC(=O)C(Cc1ccc(N)cc1)NC(C)=O` (stereo not given), the T/C runs as follows: (dose: 3.12 mg/kg/injection, schedule: Q01DX005 (ip), vehicle: saline with Tween-80) 123 % of control; (dose: 6.25 mg/kg/injection, schedule: Q01DX005 (ip), vehicle: saline with Tween-80) 159 % of control; (dose: 12.5 mg/kg/injection, schedule: Q01DX005 (ip), vehicle: saline with Tween-80) 207 % of control; (dose: 25.0 mg/kg/injection, schedule: Q01DX005 (ip), vehicle: saline with Tween-80) 298 % of control; under setting [1], 104 % of control and 115 % of control and 117 % of control; under setting [2], 114 % of control and 120 % of control. In addition, the T/C reads like this: under setting [3], 122 % of control; (dose: 400.0 mg/kg/injection, schedule: Q01DX005 (ip), vehicle: saline with Tween-80) 115 % of control.
For `CCCCC#CC(=O)O`, the T/C under setting [4] is 103 % of control and the T/C under setting [5] is 94 % of control.
For the compound `CCC1C(=O)OCc2c1cc1n(c2=O)Cc2ccccc2-1` (stereo not given), the T/C is 97 % of control (dose: 100.0 mg/kg/injection, schedule: Q01DX001 (ip), vehicle: saline with Tween-80); 92 % of control (dose: 200.0 mg/kg/injection, schedule: Q01DX001 (ip), vehicle: saline with Tween-80); 90 % of control (dose: 400.0 mg/kg/injection, schedule: Q01DX001 (ip), vehicle: saline with Tween-80).
With `O=C(O)C(O)C1CCCCC1` (stereo not given), the T/C is, setting by setting: (dose: 50.0 mg/kg/injection, schedule: Q01DX009 (ip), vehicle: saline with Tween-80) 104 % of control; under setting [6], 92 % of control.
As to `C[N+]1(C)CCOC(O)(c2ccccc2)C1` (stereo not given), the T/C reads like this: under setting [7], 104 % of control; under setting [8], 98 % of control; under setting [9], 100 % of control.
Regarding `Cc1cc(=O)[nH]c2cc(O)c(C(=O)O)cc12`, the T/C runs as follows: (dose: 50.0 mg/kg/injection, schedule: Q01DX005 (ip), vehicle: Klucel (hydroxypropylcellulose) (HPC)) 93 % of control; (dose: 100.0 mg/kg/injection, schedule: Q01DX005 (ip), vehicle: Klucel (hydroxypropylcellulose) (HPC)) 93 % of control; (dose: 200.0 mg/kg/injection, schedule: Q01DX005 (ip), vehicle: Klucel (hydroxypropylcellulose) (HPC)) 88 % of control.
Consider `COc1cccc2c1C(=O)c1c(O)c3c(c(O)c1C2=O)CC(O)(C(C)=O)CC3OC1CC(OC(=O)c2ccc([N+](=O)[O-])cc2)C(OC(=O)c2ccc([N+](=O)[O-])cc2)C(COC(=O)c2ccc([N+](=O)[O-])cc2)O1` (stereo not given), for which the T/C reads like this: (dose: 3.13 mg/kg/injection, schedule: Q04DX003 (ip), vehicle: distilled water + Tween-80) 100 % of control and 101 % of control; (dose: 6.25 mg/kg/injection, schedule: Q04DX003 (ip), vehicle: distilled water + Tween-80) 100 % of control and 99 % of control; (dose: 12.5 mg/kg/injection, schedule: Q04DX003 (ip), vehicle: distilled water + Tween-80) 104 % of control; (dose: 25.0 mg/kg/injection, schedule: Q04DX003 (ip), vehicle: distilled water + Tween-80) 102 % of control and 100 % of control; (dose: 50.0 mg/kg/injection, schedule: Q04DX003 (ip), vehicle: distilled water + Tween-80) 95 % of control.
Regarding `O=[N+]([O-])c1ccc(O)c([N+](=O)[O-])c1`, the T/C (dose: 1.0 mg/kg/injection, schedule: Q01DX005 (ip), vehicle: saline with Tween-80) was 96 % of control; the T/C (dose: 2.0 mg/kg/injection, schedule: Q01DX005 (ip), vehicle: saline with Tween-80) was 108 % of control; the T/C (dose: 4.0 mg/kg/injection, schedule: Q01DX005 (ip), vehicle: saline with Tween-80) is 106 % of control; the T/C (dose: 6.25 mg/kg/injection, schedule: Q01DX009 (ip), vehicle: saline with Tween-80) was 100 % of control; the T/C (dose: 8.0 mg/kg/injection, schedule: Q01DX005 (ip), vehicle: saline with Tween-80) was 104 % of control; the T/C (dose: 12.5 mg/kg/injection, schedule: Q01DX009 (ip), vehicle: saline with Tween-80) is 100 % of control. In addition, the T/C (dose: 16.0 mg/kg/injection, schedule: Q01DX005 (ip), vehicle: saline with Tween-80) is 103 % of control; the T/C (dose: 25.0 mg/kg/injection, schedule: Q01DX009 (ip), vehicle: saline with Tween-80) was 90 % of control; the T/C (dose: 25.0 mg/kg/injection, schedule: Q04DX003 (ip), vehicle: saline with Tween-80) was 90 % of control; the T/C (dose: 32.0 mg/kg/injection, schedule: Q01DX005 (ip), vehicle: saline with Tween-80) was 102 % of control.
`OCc1nccn1-c1ccccc1`: the T/C runs as follows: (dose: 25.0 mg/kg/injection, schedule: Q04DX002 (ip), vehicle: suspension in saline) 100 % of control; (dose: 50.0 mg/kg/injection, schedule: Q04DX002 (ip), vehicle: suspension in saline) 99 % of control; (dose: 100.0 mg/kg/injection, schedule: Q04DX002 (ip), vehicle: suspension in saline) 107 % of control; (dose: 200.0 mg/kg/injection, schedule: Q04DX002 (ip), vehicle: suspension in saline) 100 % of control.
Consider `Cc1ccc(C(=O)NNC(O)C(F)(F)F)cc1` (stereo not given), for which the T/C (dose: 100.0 mg/kg/injection, schedule: Q04DX003 (ip), vehicle: Klucel (hydroxypropylcellulose) (HPC)) is 97 % of control and the T/C (dose: 200.0 mg/kg/injection, schedule: Q04DX003 (ip), vehicle: Klucel (hydroxypropylcellulose) (HPC)) is 102 % of control.
With `O=c1c2ccccc2ncn1C12CC3CC(CC(C3)C1)C2`, the T/C reads like this: (dose: 100.0 mg/kg/injection, schedule: Q04DX002 (ip), vehicle: Klucel (hydroxypropylcellulose) (HPC)) 105 % of control; (dose: 200.0 mg/kg/injection, schedule: Q04DX002 (ip), vehicle: Klucel (hydroxypropylcellulose) (HPC)) 100 % of control; (dose: 400.0 mg/kg/injection, schedule: Q04DX002 (ip), vehicle: Klucel (hydroxypropylcellulose) (HPC)) 100 % of control.
With `O=S(=O)(c1ccccc1)[C@H]1[C@@H]2O[C@@H]2C[C@@H]1O`, the T/C (dose: 60.0 mg/kg/injection, schedule: Q01DX005 (ip), vehicle: saline) is 104 % of control; the T/C (dose: 120.0 mg/kg/injection, schedule: Q01DX005 (ip), vehicle: saline) was 103 % of control; the T/C (dose: 240.0 mg/kg/injection, schedule: Q01DX005 (ip), vehicle: saline) is 98 % of control.
In the case of `CCOC(=O)c1c(C(C)=O)cnc2c(C#N)cnn12`, the T/C is 98 % of control under setting [1], 98 % of control under setting [2] and 91 % of control under setting [3].
Take `CC(=O)c1ccc2c(c1)N(CCCN(C)C)c1ccccc1S2`: the T/C was 94 % of control and 97 % of control (dose: 3.12 mg/kg/injection, schedule: Q01DX009 (ip), vehicle: saline); 93 % of control and 94 % of control under setting [7]; 103 % of control and 93 % of control under setting [8]; 101 % of control under setting [4]; 116 % of control under setting [5].
For the compound `O=C1CCC(=O)N1CC(O)COc1ccccc1` (stereo not given), the T/C under setting [6] was 95 % of control; the T/C (dose: 200.0 mg/kg/injection, schedule: Q01DX009 (ip), vehicle: saline with Tween-80) is 95 % of control; the T/C (dose: 400.0 mg/kg/injection, schedule: Q01DX009 (ip), vehicle: saline with Tween-80) was 100 % of control.
Consider `O=c1[nH]c(=O)n(C2CC(O)C(CO)O2)cc1S` (stereo not given), for which the T/C is, setting by setting: under setting [8], 99 % of control and 101 % of control and 105 % of control; under setting [9], 100 % of control (2×) and 111 % of control; under setting [4], 101 % of control and 111 % of control and 118 % of control.
As to `O=C1C(=O)c2ncccc2-c2ncccc21`, the T/C is, setting by setting: (dose: 7.5 mg/kg/injection, schedule: Q01DX005 (ip), vehicle: saline with Tween-80) 113 % of control; (dose: 15.0 mg/kg/injection, schedule: Q01DX005 (ip), vehicle: saline with Tween-80) 95 % of control.

The record behind these values is PubChem BioAssay AID330 (DTP/NCI, 2004).
